Experimental data as given in ChEMBL document CHEMBL5634153, “Design, synthesis and preclinical evaluation of muscarine receptor antagonists via a scaffold-hopping approach” (Eur J Med Chem, 2023).
pKi: −log10 of the molar value. Calls of active or inactive are those of the source. The calls are words filed in the database; no cut-off is given here.

Columns and labels:
[1] = target: T1, Muscarinic acetylcholine receptor M2 (Homo sapiens, UniProt P08172); assay: Displacement of [3H]NMS from human muscarinic M2 receptor expressed in CHO-K1 cell membrane assessed as inhibition constant incubated for 90 mins by competitive radioligand binding assay; type: cell membranes
T1 sequence (P08172 whole entry): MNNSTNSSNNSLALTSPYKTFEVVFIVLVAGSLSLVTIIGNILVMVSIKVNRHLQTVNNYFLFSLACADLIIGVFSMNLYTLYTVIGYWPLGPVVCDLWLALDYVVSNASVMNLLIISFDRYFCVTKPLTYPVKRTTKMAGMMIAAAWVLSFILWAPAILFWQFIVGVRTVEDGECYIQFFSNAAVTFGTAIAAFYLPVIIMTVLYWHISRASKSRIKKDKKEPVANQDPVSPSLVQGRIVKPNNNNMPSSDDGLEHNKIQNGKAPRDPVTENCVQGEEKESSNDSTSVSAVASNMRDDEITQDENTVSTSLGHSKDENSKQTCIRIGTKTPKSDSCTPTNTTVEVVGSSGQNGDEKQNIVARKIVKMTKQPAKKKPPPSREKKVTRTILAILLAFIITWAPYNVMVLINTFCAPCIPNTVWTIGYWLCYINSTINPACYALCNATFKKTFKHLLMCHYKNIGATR

[2] = target: T2, Muscarinic acetylcholine receptor M1 (Homo sapiens, UniProt P11229); assay: Displacement of [3H]NMS from human muscarinic M1 receptor expressed in CHO-K1 cell membrane assessed as inhibition constant incubated for 90 mins by competitive radioligand binding assay; type: cell membranes
T2 sequence (P11229 whole entry): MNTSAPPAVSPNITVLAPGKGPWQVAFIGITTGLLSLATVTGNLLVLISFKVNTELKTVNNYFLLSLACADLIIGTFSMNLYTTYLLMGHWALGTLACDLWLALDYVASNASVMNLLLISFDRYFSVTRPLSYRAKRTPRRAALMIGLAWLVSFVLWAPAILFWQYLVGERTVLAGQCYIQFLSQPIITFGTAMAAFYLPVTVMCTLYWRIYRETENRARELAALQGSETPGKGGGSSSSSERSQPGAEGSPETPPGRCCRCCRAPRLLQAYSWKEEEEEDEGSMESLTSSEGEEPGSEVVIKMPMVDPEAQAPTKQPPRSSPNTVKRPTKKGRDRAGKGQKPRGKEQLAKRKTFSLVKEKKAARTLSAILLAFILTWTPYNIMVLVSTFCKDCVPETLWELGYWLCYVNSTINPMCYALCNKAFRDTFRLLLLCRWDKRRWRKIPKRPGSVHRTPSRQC

[3] = Cytotoxicity against CHO-K1 cells expressing human muscarinic receptor M1 incubated for 72 hrs by MTT assay; type: toxicity, cell-based; settings: Chinese hamster (Cricetulus griseus)
[4] = target: T3, Muscarinic acetylcholine receptor M5 (Homo sapiens, UniProt P08912); assay: Displacement of [3H]NMS from human muscarinic M5 receptor expressed in CHO-K1 cell membrane assessed as inhibition constant incubated for 90 mins by competitive radioligand binding assay; type: cell membranes
T3 sequence (P08912 whole entry): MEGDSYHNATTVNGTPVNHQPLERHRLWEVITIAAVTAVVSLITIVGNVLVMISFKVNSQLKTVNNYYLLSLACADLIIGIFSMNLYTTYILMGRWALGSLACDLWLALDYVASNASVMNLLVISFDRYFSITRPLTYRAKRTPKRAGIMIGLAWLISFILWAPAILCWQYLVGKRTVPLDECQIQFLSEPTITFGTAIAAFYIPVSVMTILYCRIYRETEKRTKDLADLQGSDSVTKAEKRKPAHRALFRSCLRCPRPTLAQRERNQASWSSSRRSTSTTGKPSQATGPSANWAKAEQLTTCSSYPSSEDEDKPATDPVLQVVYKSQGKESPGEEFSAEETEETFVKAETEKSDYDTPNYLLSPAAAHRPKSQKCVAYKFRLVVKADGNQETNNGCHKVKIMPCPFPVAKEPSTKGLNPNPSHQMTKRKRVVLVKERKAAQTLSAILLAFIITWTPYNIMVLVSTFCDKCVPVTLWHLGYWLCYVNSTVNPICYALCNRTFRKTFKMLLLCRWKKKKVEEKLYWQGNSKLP

[5] = target: T4, Muscarinic acetylcholine receptor M4 (Homo sapiens, UniProt P08173); assay: Displacement of [3H]NMS from human muscarinic M4 receptor expressed in CHO-K1 cell membrane assessed as inhibition constant incubated for 90 mins by competitive radioligand binding assay; type: cell membranes
T4 sequence (P08173 whole entry): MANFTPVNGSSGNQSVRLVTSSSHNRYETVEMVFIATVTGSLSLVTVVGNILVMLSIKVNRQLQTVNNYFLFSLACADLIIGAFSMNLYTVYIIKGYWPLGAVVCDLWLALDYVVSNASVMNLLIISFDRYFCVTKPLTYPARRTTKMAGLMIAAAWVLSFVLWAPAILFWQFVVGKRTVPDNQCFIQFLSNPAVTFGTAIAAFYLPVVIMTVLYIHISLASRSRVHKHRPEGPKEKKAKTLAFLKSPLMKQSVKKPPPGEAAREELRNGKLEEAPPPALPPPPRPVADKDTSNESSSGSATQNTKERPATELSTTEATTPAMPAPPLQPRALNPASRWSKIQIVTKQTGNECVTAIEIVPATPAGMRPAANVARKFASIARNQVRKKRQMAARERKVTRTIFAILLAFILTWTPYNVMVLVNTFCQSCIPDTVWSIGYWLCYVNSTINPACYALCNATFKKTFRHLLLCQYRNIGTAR

[6] = Lipophilicity, log P of compound at pH 7.4 by HPLC analysis; type: physicochemical; settings: buffer
[7] = target: Muscarinic acetylcholine receptor M3 (Homo sapiens, UniProt P20309); assay: Displacement of [3H]NMS from human muscarinic M3 receptor expressed in CHO-K1 cell membrane assessed as inhibition constant incubated for 90 mins by competitive radioligand binding assay; type: cell membranes
[8] = target: T5, Muscarinic acetylcholine receptor M1 (Homo sapiens) (UniProt P11229); assay: Agonist activity at human muscarinic M1 receptor expressed in CHO-K1 cell membrane upto 100 uM by fluorescence based assay; type: functional, cell membranes
T5 sequence (whole entry): T2 sequence (P11229 whole entry)

[9] = target: T5, Muscarinic acetylcholine receptor M1 (Homo sapiens); assay: Antagonist activity at human muscarinic M1 receptor expressed in CHO-K1 cell membrane assessed as reduction in carbachol-induced ca2+ influx by fluorescence based assay; type: functional, cell membranes; settings: filed as antagonist
[10] = target: Muscarinic acetylcholine receptor M1 and M3 (Homo sapiens) (UniProt P20309+P11229); assay: Selectivity ratio of Ki for human muscarinic M1 receptor expressed in CHO-K1 cells to Ki for human muscarinic M3 receptor expressed in CHO-K1 cells; type: cell-based
[11] = target: Muscarinic acetylcholine receptors; M2 & M3 (Homo sapiens) (UniProt P20309+P08172); assay: Selectivity ratio of Ki for human muscarinic M2 receptor expressed in CHO-K1 cells to Ki for human muscarinic M3 receptor expressed in CHO-K1 cells; type: cell-based
Homo sapiens [12] = organism: Homo sapiens; assay: Selectivity ratio of Ki for human muscarinic M5 receptor expressed in CHO-K1 cells to Ki for human muscarinic M3 receptor expressed in CHO-K1 cells; type: cell-based
Homo sapiens [13] = organism: Homo sapiens; assay: Selectivity ratio of Ki for human muscarinic M4 receptor expressed in CHO-K1 cells to Ki for human muscarinic M3 receptor expressed in CHO-K1 cells; type: cell-based
[14] = target: Muscarinic acetylcholine receptor M2 and M5 (Homo sapiens) (UniProt P08172+P08912); assay: Selectivity ratio of Ki for human muscarinic M2 receptor expressed in CHO-K1 cells to Ki for human muscarinic M5 receptor expressed in CHO-K1 cells; type: cell-based
Homo sapiens [15] = organism: Homo sapiens; assay: Selectivity ratio of Ki for human muscarinic M1 receptor expressed in CHO-K1 cells to Ki for human muscarinic M5 receptor expressed in CHO-K1 cells; type: cell-based
Homo sapiens [16] = organism: Homo sapiens; assay: Selectivity ratio of Ki for human muscarinic M4 receptor expressed in CHO-K1 cells to Ki for human muscarinic M5 receptor expressed in CHO-K1 cells; type: cell-based
Homo sapiens [17] = organism: Homo sapiens; assay: Selectivity ratio of Ki for human muscarinic M3 receptor expressed in CHO-K1 cells to Ki for human muscarinic M5 receptor expressed in CHO-K1 cells; type: cell-based

Muscarinic acetylcholine receptor M3, sequence (P20309 whole entry): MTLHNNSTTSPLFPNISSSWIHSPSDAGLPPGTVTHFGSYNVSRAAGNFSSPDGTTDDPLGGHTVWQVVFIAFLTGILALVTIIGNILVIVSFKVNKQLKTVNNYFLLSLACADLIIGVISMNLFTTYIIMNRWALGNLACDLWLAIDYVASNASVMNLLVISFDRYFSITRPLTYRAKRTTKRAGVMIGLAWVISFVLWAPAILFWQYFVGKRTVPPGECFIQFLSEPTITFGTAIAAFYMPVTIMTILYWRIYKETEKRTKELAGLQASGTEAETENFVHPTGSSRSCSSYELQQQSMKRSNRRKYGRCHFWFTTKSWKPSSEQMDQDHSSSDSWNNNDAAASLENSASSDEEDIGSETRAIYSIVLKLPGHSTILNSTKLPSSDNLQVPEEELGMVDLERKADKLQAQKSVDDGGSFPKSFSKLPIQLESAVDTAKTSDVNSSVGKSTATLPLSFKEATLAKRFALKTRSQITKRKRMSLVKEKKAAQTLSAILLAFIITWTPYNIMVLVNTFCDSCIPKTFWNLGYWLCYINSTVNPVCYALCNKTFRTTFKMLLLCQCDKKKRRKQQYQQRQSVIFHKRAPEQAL
Muscarinic acetylcholine receptor M1 and M3 (Homo sapiens), sequence (P20309 whole entry, looked up, one chain of several): as the sequence (P20309 whole entry) above
Muscarinic acetylcholine receptors; M2 & M3 (Homo sapiens), sequence (P20309 whole entry, looked up, one chain of several): as the sequence (P20309 whole entry) above

pKi [1]	pKi [2]	pKi [4]	pKi [5]	logP [6]	pKi [7]	Activity [8]	Activity [9]	SMILES	IC50 at 72 h [3] [nM]	Ratio Ki [10]	Ratio Ki [11]	Ratio Ki (Homo sapiens [12])	Ratio Ki (Homo sapiens [13])	Ratio Ki [14]	Ratio Ki (Homo sapiens [15])	Ratio Ki (Homo sapiens [16])	Ratio Ki (Homo sapiens [17])
< 6.00	< 6.00	< 6.00	< 6.00	2.6	< 6.00			CN1CC(Oc2nc3ccccc3n2-c2ccccc2)C1	≥ 100000								
6.97	7.70	7.74	7.49	2.94	7.68	inactive	Dose-Dependent Effect	CN1CCC(Oc2nc3ccccc3n2-c2ccccc2)CC1	≥ 100000								
< 6.00			< 6.00		< 6.00			CN1CCN(Cc2nc3cccnc3n2-c2ccccc2C(=O)O)CC1									
< 6.00	< 6.00	< 6.00	6.61	1.82	6.47			CN1CC(OC(=O)N(c2ccccc2)c2ccccc2)C1	≥ 100000								
6.41	6.54	7.11	6.82	3.2	6.63			CN1CCCC(Oc2nc3ccccc3n2-c2ccccc2)C1 (racemic)	≥ 100000								
< 6.00	< 6.00	< 6.00	< 6.00	2.69	< 6.00			CN1CCCC(OC(=O)N(c2ccccc2)c2ccccc2)C1 (centres undefined)	≥ 100000								
< 6.00	6.59	6.59	6.80	2.11	6.92	inactive	Dose-Dependent Effect	CN1CCC(OC(=O)N(c2ccccc2)c2ccccc2)CC1	≥ 100000								
< 6.00	< 6.00	< 6.00	< 6.00	1.58	< 6.00	inactive	Dose-Dependent Effect	CN1[C@@H]2C[C@@H]3C[C@H]1C(O3)C2OC(=O)N(c1ccccc1)c1ccccc1 (some centres undefined)	≥ 100000								
< 6.00	6.66	6.98	6.81	1.91	6.91	inactive	Dose-Dependent Effect	CN1CCC(OC(=O)N(c2ccccc2)c2ccccc2)C1 (centres undefined)	≥ 100000								
6.59	7.29	7.85	7.19	2.81	7.22	inactive	Dose-Dependent Effect	CN1CCC(Oc2nc3ccccc3n2-c2ccccc2)C1 (racemic)	≥ 100000					18	4	4	4

SMILES	pKi [1]	pKi [2]	pKi [4]	pKi [5]	logP [6]	pKi [7]	Activity [8]	Activity [9]	IC50 at 72 h [3] [nM]	Ratio Ki [10]	Ratio Ki [11]	Ratio Ki (Homo sapiens [12])	Ratio Ki (Homo sapiens [13])	Ratio Ki [14]	Ratio Ki (Homo sapiens [15])	Ratio Ki (Homo sapiens [16])	Ratio Ki (Homo sapiens [17])
CN1[C@@H]2CC[C@H]1C[C@@H](Oc1nc3ccccc3n1-c1ccccc1)C2	6.35	7.00	< 6.00	6.70	2.73	7.34			≥ 100000	2.5	2.5	2.5	2.5				
c1ccc(-n2c(O[C@H]3CN4CCC3CC4)nc3ccccc32)cc1	7.15	7.80	8.59	8.03	1.2	8.43			≥ 100000					1.4	1.4	1.4	1.4
CN1[C@@H]2CC[C@H]1C[C@H](Oc1nc3ccccc3n1-c1ccccc1)C2	7.80	8.05	8.09	7.96	3.05	7.77	inactive	Dose-Dependent Effect	≥ 100000								
CN1[C@@H]2C[C@@H](Oc3nc4ccccc4n3-c3ccccc3)C[C@H]1[C@@H]1O[C@@H]12	< 6.00	6.55	6.79	6.72	3.04	6.46			≥ 100000								
CN1[C@@H]2CC[C@H]1C[C@H](OC(=O)N(c1ccccc1)c1ccccc1)C2	6.65	7.36	7.12	7.30	1.58	6.97	inactive	Dose-Dependent Effect	≥ 100000								
CN1[C@@H]2CC[C@H]1C[C@@H](OC(=O)N(c1ccccc1)c1ccccc1)C2	< 6.00	< 6.00	< 6.00	< 6.00	2.69	< 6.00			≥ 100000								
